Measurements taken from patent publication US20250304594A1, “METHYL (R)-2-(FLUOROMETHYL)-5-OXO-4-PHENYL-4,5,6,7-TETRAHYDRO-1H-CYCLOPENTA[B]PYRIDINE-3-CARBOXYLATE AND METHYL (R)-2-(FLUOROMETHYL)-5-OXO-4-PHENYL-1,4,5,7-TETRAHYDROFURO[3,4-B]PYRIDINE-3-CARBOXYLATE AS Cav1,2 ACTIVATORS” (Novartis AG, priority 2020, published 2025).

What was measured:
human CaV1.2 [1] = target: T1, human CaV1.2 (Homo sapiens, UniProt Q13936); test: Sophion QPatch dose-response assay, whole-cell voltage clamp of barium currents in CaV1.2-HEK293(AUX) cells; type: cell-based; conditions: for Qpatch Emax: maximal fold change of peak inward current
T1 construct: expressed in transfected cells; host or cells: Flp-In 293 T-Rex (HEK293), monoclonal CaV1.2-HEK293(AUX) clone 2-19B; doxycycline-induced auxiliary subunits
T1 sequence (Q13936 1-2138 isoform Q13936-23): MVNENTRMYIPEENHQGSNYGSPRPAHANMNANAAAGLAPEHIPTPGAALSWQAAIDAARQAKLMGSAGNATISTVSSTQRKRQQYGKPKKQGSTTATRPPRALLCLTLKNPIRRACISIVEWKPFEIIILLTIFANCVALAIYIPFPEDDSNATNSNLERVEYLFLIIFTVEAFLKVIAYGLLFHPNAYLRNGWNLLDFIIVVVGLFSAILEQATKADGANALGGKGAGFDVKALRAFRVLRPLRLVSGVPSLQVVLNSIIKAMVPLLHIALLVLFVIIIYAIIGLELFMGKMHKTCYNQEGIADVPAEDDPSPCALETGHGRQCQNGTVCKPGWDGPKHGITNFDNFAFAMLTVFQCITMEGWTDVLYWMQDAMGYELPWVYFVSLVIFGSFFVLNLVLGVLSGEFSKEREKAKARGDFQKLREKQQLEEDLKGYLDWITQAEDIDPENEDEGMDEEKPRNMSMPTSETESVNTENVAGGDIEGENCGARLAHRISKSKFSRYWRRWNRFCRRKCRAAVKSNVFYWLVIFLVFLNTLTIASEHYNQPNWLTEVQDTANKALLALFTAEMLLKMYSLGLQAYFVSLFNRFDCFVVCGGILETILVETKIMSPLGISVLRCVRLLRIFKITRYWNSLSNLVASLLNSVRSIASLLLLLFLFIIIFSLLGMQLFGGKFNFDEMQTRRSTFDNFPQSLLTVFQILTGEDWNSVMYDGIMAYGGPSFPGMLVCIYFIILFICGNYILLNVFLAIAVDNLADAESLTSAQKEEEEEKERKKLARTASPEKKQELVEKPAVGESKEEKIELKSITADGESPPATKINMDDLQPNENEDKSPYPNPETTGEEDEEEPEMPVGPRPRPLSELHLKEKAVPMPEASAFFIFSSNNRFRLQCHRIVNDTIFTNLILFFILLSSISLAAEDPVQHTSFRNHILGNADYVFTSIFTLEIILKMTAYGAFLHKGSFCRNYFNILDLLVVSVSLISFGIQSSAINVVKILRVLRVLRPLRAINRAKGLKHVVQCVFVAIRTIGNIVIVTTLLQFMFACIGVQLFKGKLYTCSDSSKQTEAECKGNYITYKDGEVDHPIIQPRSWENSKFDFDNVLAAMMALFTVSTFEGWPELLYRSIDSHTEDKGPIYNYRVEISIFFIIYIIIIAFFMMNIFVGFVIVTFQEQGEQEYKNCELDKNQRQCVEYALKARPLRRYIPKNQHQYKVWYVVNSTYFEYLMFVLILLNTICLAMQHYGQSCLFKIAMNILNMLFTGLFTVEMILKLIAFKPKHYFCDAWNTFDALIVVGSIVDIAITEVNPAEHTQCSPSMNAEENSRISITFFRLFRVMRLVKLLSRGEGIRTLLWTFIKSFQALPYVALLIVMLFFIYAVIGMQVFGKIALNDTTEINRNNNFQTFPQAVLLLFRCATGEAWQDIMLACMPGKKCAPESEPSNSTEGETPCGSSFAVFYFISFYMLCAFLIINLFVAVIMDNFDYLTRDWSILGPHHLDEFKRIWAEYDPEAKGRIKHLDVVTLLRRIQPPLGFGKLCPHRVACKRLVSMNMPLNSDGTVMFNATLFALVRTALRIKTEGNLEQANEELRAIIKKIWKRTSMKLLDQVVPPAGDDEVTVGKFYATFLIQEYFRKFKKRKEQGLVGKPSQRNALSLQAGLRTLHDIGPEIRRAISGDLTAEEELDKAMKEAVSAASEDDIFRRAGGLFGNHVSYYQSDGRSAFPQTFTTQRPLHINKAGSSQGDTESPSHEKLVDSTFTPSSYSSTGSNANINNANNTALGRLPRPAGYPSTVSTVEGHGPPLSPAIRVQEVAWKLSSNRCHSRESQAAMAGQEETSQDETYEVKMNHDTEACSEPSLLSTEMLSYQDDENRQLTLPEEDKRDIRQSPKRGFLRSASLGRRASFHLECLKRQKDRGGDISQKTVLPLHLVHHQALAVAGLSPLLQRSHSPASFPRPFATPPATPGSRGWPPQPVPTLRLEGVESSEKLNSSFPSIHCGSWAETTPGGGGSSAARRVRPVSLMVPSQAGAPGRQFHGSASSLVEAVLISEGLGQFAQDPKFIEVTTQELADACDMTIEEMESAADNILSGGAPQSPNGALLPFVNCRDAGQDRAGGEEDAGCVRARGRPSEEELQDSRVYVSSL
T1 sequence (Q9NY47 19-1001 partner limits assumed): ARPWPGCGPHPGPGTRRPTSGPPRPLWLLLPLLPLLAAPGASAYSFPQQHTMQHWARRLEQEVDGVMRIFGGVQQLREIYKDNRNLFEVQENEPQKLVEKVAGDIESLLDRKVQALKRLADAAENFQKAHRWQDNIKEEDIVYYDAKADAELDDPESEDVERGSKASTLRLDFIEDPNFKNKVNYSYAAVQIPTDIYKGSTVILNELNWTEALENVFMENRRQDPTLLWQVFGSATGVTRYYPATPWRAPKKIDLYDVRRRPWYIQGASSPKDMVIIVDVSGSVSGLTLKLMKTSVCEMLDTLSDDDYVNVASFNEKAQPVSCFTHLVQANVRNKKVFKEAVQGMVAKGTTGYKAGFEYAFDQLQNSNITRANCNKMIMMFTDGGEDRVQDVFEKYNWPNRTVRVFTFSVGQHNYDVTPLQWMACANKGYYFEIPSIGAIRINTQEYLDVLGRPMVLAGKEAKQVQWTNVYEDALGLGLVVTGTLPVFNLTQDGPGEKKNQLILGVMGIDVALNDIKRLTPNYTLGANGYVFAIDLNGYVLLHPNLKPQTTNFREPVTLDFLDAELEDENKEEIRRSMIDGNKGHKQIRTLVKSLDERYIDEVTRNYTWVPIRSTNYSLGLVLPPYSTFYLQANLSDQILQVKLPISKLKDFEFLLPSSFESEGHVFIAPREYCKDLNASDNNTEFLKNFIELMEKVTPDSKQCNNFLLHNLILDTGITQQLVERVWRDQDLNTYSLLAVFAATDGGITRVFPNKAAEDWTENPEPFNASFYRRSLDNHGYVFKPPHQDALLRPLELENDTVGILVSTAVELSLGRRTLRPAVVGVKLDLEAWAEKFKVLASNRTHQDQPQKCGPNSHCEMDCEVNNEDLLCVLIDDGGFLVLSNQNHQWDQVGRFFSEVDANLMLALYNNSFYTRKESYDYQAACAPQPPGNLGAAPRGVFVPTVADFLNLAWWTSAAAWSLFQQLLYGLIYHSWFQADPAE
T1 sequence (Q9NY47 1002-1150 partner limits assumed): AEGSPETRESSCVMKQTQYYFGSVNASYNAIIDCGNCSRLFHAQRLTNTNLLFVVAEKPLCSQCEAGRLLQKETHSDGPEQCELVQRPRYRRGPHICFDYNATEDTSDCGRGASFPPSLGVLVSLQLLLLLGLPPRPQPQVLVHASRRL
T1 sequence (Q08289 whole entry partner): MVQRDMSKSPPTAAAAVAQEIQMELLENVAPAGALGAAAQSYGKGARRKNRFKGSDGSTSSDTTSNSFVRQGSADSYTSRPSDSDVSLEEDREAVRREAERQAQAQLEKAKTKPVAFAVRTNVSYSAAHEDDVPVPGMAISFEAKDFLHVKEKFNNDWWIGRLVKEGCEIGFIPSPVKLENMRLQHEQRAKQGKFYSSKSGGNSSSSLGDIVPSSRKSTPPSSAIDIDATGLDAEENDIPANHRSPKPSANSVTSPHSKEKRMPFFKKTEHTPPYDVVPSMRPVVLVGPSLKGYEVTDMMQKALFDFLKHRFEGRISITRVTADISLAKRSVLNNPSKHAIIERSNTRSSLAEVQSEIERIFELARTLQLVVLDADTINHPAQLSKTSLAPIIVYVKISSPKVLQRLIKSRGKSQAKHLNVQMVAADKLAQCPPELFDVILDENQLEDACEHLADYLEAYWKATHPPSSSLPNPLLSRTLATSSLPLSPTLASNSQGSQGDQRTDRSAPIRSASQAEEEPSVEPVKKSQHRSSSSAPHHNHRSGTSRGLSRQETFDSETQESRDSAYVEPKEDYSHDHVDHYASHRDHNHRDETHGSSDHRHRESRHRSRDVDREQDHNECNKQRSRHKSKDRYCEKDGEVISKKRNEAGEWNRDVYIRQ
From the text: (§1) The monoclonal CaV1.2-HEK293(AUX) cell line constitutively expresses human CaV1.2 alpha1C (α1C) subunit (CACNA1C) and has doxycycline-inducible expression of the alpha2delta (α2Δ2) auxiliary subunit (CACNA2D2) and beta2 (02) auxiliary subunit (CACNB2). To generate the cell line, expression vectors pcDNA5.0/FRT-TO-CACNA2D2-FCS-P2A-CACNB2 and pCMV6-entry-CACNA1C were established via gene synthesis and cloning. Here, pcDNA5.0/FRT-TO plasmid is from Invitrogen, pCMV6-entry is from Origene, FCS stands for Furin Cleavage Site, P2A is a peptide self-cleavage sequence derived from porcine teschovirus-1, and FRT is the Flippase recognition target site. Next, parental line Flp-In™ 293 T-Rex (Invitrogen) was transfected with pcDNA5.0/FRT-TO-CACNA2D2-FCS-P2A-CACNB2 and Flippase vector pOG44 (Invitrogen) to establish targeted integration of the CACNA2D2-FCS-P2A-CACNB2 expression cassette into the pre-engineered FRT site in Flp-In™ 293 T-Rex. This intermediate cell line was then transfected with pCMV6-entry-CACNA1C to establish stable CACNA1C expression. Clonal isolation was achieved under Neomycin selection.
Electrophysiological Characterization of CaV1.2 Activators Using CaV1.2-HEK293(AUX) Cell Line and QPatch
(§2) 24 hours prior an electrophysiology experiment, doxycycline (1 μg/ml) was added to the growth medium (Table 6), and 25 μM of verapamil was co-applied to prevent calcium influx triggered cell death. Cell confluency should reach 70%-80% right before the experiment. To harvest cells (from a T175 cm^2 flask as an example), growth media were removed completely, and the cells were rinsed with 10 mL of D-PBS. D-PBS was aspirated, and 10 mL of Detachin (Genlantis) was added and the plate was placed in a 37° C. incubator for 10 minutes. Detached cells were placed into a 15 mL conical tube and spun at 1000 rpm for 2 minutes. Supernatant was removed, and cells were re-suspended in QPatch complete media (Table 7) to desired cell density of 1.5-3 million cells per QPatch run. Each experimental run uses 1.5 mL of cells.
(§3) The cells suspension was taken to the Sophion QPatch platform that uses whole-cell voltage clamp to measure barium currents conducted through CaV1.2 on single-hole QPlates. Extracellular and intracellular patch clamp solutions are described in Tables 7 and 8, respectively. A dose-response assay protocol was used to determine the maximal fold change of peak inward current (Emax) and potency (EC50) of each compound. The protocol had eight liquid periods. The first liquid period was to stabilize current amplitude, which was monitored using repetitive 200-ms voltage pulses stepping from −80 mV to 0 mV. The second liquid period was to determine baseline current amplitude in the presence of vehicle control, using a single 20-ms voltage pulse stepping from −80 mV to 0 mV. The third through eighth liquid periods were used to ascertain a 6-dose response to compound treatments, also using single 20-ms voltage pulses stepping from −80 mV to 0 mV. The EC50 was generated using the following equation Iconcentration=Ibase+(Ifull−Ibase)*c^n/(XC50^n+c^n), where c is the concentration and n is the Hill coefficient constant. Ifull is the maximal current achievable, and Ibase is 0. A channel biophysics assay protocol was used to determine channel gating properties including current-voltage relationship (IV curves), half-way channel activation voltage (V1/2), rate of channel inactivation (tau), and amplitude of tail current. Among these, V1/2 was derived from fitting equation G(V)=Gvmin+(Gvmax−Gvmin)/(1+exp(−(V−V½)/Vslope)), where G stands for conductance, Gvmin equals 0, Gvmax is the maximal conductance, and Vslope is a slope factor. G(V) was pre-calculated from equation G(V)=I(V)/(V−0.06), for each experimentally applied depolarization potential (V) and the corresponding current amplitude (I(V)), and 0.06 in the equation was the experimentally determined reversal potential in volts. The protocol had four liquid periods.

human CaV1.2 [2] = target: T1, human CaV1.2; test: QPatch channel biophysics assay (channel gating, V1/2 of activation, inactivation) in CaV1.2-HEK293(AUX) cells; type: cell-based
From the text: as §1, with “selection. A cell clone (2-19B) with good voltage-dependent Barium current (see electrophysiology methods below) was selected for characterization of CaV1.2 activators.” for “selection.”
as §2
as §3, with “The protocol had four liquid periods.” left out

[3] = Table 9, 6-point dose response, 10 determinations per concentration, n = 1 unless * n = 2
[4] = Table 9, shift of half-way channel activation voltage V1/2
[5] = Table 10 comparative examples, single enantiomers of reported racemates

SMILES | EC50 (human CaV1.2 [1]; [3]) [nM] | Qpatch Emax (human CaV1.2 [1]; Table 9, n = 1 unless * n = 2) | Biophysics voltage shift (mV) (human CaV1.2 [2]; [4]) | Qpatch Emax (human CaV1.2 [1]; Table 10 comparative examples) | EC50 (human CaV1.2 [1]; [5]) [nM] | Biophysics voltage shift (mV) (human CaV1.2 [2]; Table 10 comparative examples)
COC(=O)C1=C(CF)NC2=C(C(=O)CC2)[C@H]1c1cccc(F)c1CC(F)(F)F (single isomer, unassigned) [Example 25] | 40 | 1.7 | −4.2 |  |  | 
COC(=O)C1=C(C)NC(C)=C([N+](=O)[O-])[C@H]1c1ccccc1C(F)(F)F (single isomer, unassigned) [reference compound] |  |  |  | 3.9 |  | 
COC(=O)C1=C(CF)NC2=C(C(=O)OC2)[C@H]1c1ccccc1C(F)(F)F (single isomer, unassigned) [Example 24] | 160 |  |  |  |  | 
COC(=O)C1=C(C)NC2=C(C(=O)OC2)[C@H]1c1ccccc1C (single isomer, unassigned) [CAS# 85825-32-7, reference compound] |  |  |  |  | 2240 | 
COC(=O)C1=C(CF)NC2=C(C(=O)OC2)[C@H]1c1cc(F)ccc1C1CC1 (single isomer, unassigned) [Example 21] | 30 | 2.8 | −8.1 |  |  | 
COC(=O)C1=C(CF)NC2=C(C(=O)CC2)[C@H]1c1cc(F)cc(F)c1[C@H](C)F (single isomer, unassigned) [Example 29, methyl (R)-4-(3,5-difluoro-2-((S or R)-1-fluoroethyl)phenyl)-2-(fluoromethyl)-5-oxo-4,5,6,7-tetrahydro-1H-cyclopenta[b]pyridine-3-carboxylate] | 50 | 1.4 |  |  |  | 
COC(=O)C1=C(CF)NC2=C(C(=O)OC2)[C@H]1c1cc(F)ccc1OC(F)F (single isomer, unassigned) [Example 20] | 220 | 3.0 | −8.5 |  |  | 
COC(=O)C1=C(CF)NC2=C(C(=O)OC2)[C@H]1c1cccc(F)c1OC(F)F (single isomer, unassigned) [Example 19] | 60 | 1.8 | −6.7 |  |  | 
COC(=O)C1=C(CF)NC2=C(C(=O)CC2)[C@H]1c1cc(F)cc(F)c1C1CC1 (single isomer, unassigned) [Example 14] | 90 | 1.9 | −5.5 |  |  | 
CCOC(=O)C1=C(C)NC2=C(C(=O)OC2)[C@H]1c1ccccc1OCc1ccccc1 (single isomer, unassigned) [RS30124, reference compound] |  |  |  | 4.3 | 45 | −15.4
COC(=O)C1=C(CF)NC2=C(C(=O)CC2)[C@H]1c1cccc(F)c1[C@@H](C)F (single isomer, unassigned) [Example 27, methyl (R)-4-(3-fluoro-2-((R or S)-1-fluoroethyl)phenyl)-2-(fluoromethyl)-5-oxo-4,5,6,7-tetrahydro-1H-cyclopenta[b]pyridine-3-carboxylate] | 30 | 1.5 | −8.7 |  |  | 
COC(=O)C1=C(C(F)F)NC2=C(C(=O)OC2)[C@H]1c1cccc(F)c1[C@@H](C)F (single isomer, unassigned) [Example 31, methyl (R)-2-(difluoromethyl)-4-(3-fluoro-2-((R or S)-1-fluoroethyl)phenyl)-5-oxo-1,4,5,7-tetrahydrofuro[3,4-b]pyridine-3-carboxylate] | 290 | 1.6 |  |  |  | 
COC(=O)C1=C(CF)NC2=C(C(=O)CC2)[C@H]1c1cccc(F)c1CC(F)F (single isomer, unassigned) [Example 26] | 300 | 2.0 | −4.3 |  |  | 
COC(=O)C1=C(CF)NC2=C(C(=O)OC2)[C@H]1c1ccccc1C1CC1 (single isomer, unassigned) [Example 22] | 50 | 2.8 | −8.6 |  |  | 
CCc1ccccc1[C@H]1C(C(=O)OC)=C(CF)NC2=C1C(=O)OC2 (single isomer, unassigned) [Example 30] | 90 | 1.8 |  |  |  | 
COC(=O)C1=C(CF)NC2=C(C(=O)OC2)[C@H]1c1cc(F)cc(F)c1CC(F)F (single isomer, unassigned) [Example 12] | 80 | 2.3 | −3.4 |  |  | 
